Laboratory results taken from US11773381B2, “Cell penetrating peptide, conjugate comprising same, and composition comprising conjugate” (GemVax & KAEL CO., LTD., priority 2012, dated 2023).

test system: HeLa cell; test: Cell penetration of pep(CPP)-FITC conjugates in HeLa cell line, flow cytometry (FACS); type: cell-based, Homo sapiens; settings: HeLa cells, 20 μM of each carrier peptide combined with FITC, 37° C. for an hour, control cells treated only FITC
Experimental: Homo sapiens cervix adenocarcinoma cell line as HeLa cell lines were purchased from ATCC (American Type Cell Culture). The cells were cultured in MEM supplemented with 10% fetal bovine serum (Invitrogen, USA), Earle's salts, non-essential amino acids, sodium pyruvate and 100 μg/ml penicillin and 10 units/ml streptomycin and cultured at 37° C., 5% CO2 incubator.
Flow cytometry and Confocal microscope analysis were performed to compare the between degree of cellular uptake of the cells were treated with SEQ ID NO: 1 to SEQ ID NO: 156, pep (CPP) and control.
The cell line was divided in a 6-well plate and cultured in a medium containing 10% fetal bovine serum (Invitrogen, USA), […] at 37° C., 5% CO2 incubator for 12 hours. After washing the cell line with PBS, starvation was induced in a Minimum Essential Medium for an hour. 20 μM of each carrier peptide was treated and cultured at 37° C. for an hour. After repeating the step of washing the cells with PBS for three times, Trypsin-EDTA was treated form 10 mins at 37° C. to separate the carrier peptide on the outside of the cell. cells were collected with refrigerated PBS and centrifugation was performed to repeat the step of washing the cells for three times. After then, the cells were suspended in 0.5 ml of PBS containing 4% Paraformaldehyde and fluorescence of the cells was analyzed using FACS Calibur (Becton Dickinson). The cellular uptake aspect of control and various peptides combined with FITC was compared and analyzed by MFI (Mean Fluorescence Intensity).
Analysis results shown in FIG. 1 to FIG. 23 are given in detail in Table 3 below.

Row | Sequence | cellular uptake, MFI (Mean Fluorescence Intensity)
1 | RPALLTSRLRFIPKP (listed as Homo sapiens) [pep41] | 28.97 ± 3.44
2 | RPGLLGASVL (listed as Homo sapiens) [pep21] | 13.22 ± 1.67
3 | RPIVNMDYVVGARTFRREKR (listed as Homo sapiens) [pep139] | 29.95 ± 0.28
4 | RPSLTGARRLVETIFLGSRP (listed as Homo sapiens) [pep125] | 28.62 ± 2.12
5 | RQHHAGPPSTSRPPRPWDTP (listed as Homo sapiens) [pep65] | 12.72 ± 1.36
6 | RRPGLLGAS (listed as Homo sapiens) [pep28] | 14.08 ± 3.11
7 | RRPGLLGASVLGLDDIHRAW (listed as Homo sapiens) [pep141] | 20.89 ± 0.31
8 | RRSPGVGCVPAAEHRLREEI (listed as Homo sapiens) [pep76] | 13.98 ± 0.11
9 | RSLLRSHYREVLPLATFVRR (listed as Homo sapiens) [pep108] | 22.53 ± 0.95
10 | RTFRREKRAERLTSR (listed as Homo sapiens) [pep43] | 29.88 ± 2.35
11 | RTFVLRVRAQDPPPE (listed as Homo sapiens) [pep8] | 17.75 ± 1.96
12 | RTRGPSDRGFCVVSPARPAE (listed as Homo sapiens) [pep63] | 21.3 ± 1.55
13 | SGPRRRLGCERAWNHSVREA (listed as Homo sapiens) [pep117] | 23.11 ± 2.46
14 | SHVSTLTDLQPYMRQFVAHL (listed as Homo sapiens) [pep88] | 16.43 ± 0.55
15 | SLCYSILKAKNAGMSLGAKG (listed as Homo sapiens) [pep102] | 45.84 ± 1.58
16 | SLPLPKRPRRGAAPEPERTP (listed as Homo sapiens) [pep119] | 13.23 ± 0.64

Row | Sequence | cellular uptake, MFI (Mean Fluorescence Intensity)
17 | SRPPRPWDTPCPPVYAETKH (listed as Homo sapiens) [pep123] | 18.03 ± 2.83
18 | SVLGLDDIH (listed as Homo sapiens) [pep31] | 14.93 ± 2.05
19 | SVLGLDDIHR (listed as Homo sapiens) [pep17] | 15.26 ± 2.23
20 | SVLNYERAR (listed as Homo sapiens) [pep24] | 13.78 ± 1.07
21 | SVLNYERARR (listed as Homo sapiens) [pep16] | 20.12 ± 1.84
22 | SVLNYERARRPGLLG (listed as Homo sapiens) [pep3] | 18.23 ± 3.21
23 | SYLPNTVTDALRGSGAWGLL (listed as Homo sapiens) [pep56] | 28.61 ± 0.44
24 | THCPLRAAVTPAAGVCAREK (listed as Homo sapiens) [pep128] | 14.36 ± 1.21
25 | TKKFISLGKHAKLSLQELTW (listed as Homo sapiens) [pep132] | 26.39 ± 0.95
26 | TQLSRKLPGTTLTALEAAAN (listed as Homo sapiens) [pep105] | 13.23 ± 2.21
27 | VAQCLVCVPWDARPPPAAPS (listed as Homo sapiens) [pep110] | 22.04 ± 0.77
28 | VARVLQRLCERGAKNVLAFG (listed as Homo sapiens) [pep54] | 388.45 ± 2.94
29 | VETIFLGSRPWMPGTPRRLP (listed as Homo sapiens) [pep68] | 27.28 ± 1.28
30 | VLGLDDIHR (listed as Homo sapiens) [pep23] | 15.68 ± 2.03
31 | VLGLDDIHRA (listed as Homo sapiens) [pep13] | 14.01 ± 1.32
32 | VLNYERARR (listed as Homo sapiens) [pep25] | 18.62 ± 0.69
